Read-outs that look alike come from different tables or passages of the source.
What was measured:
hM1 mAChR [1] = biological target: T1, hM1 mAChR (Homo sapiens, UniProt P11229); experiment: Whole-cell [3H]NMS equilibrium competition radioligand binding; details: [3H]NMS binding; for α (binding cooperativity with ACh): antilog
T1 construct: expressed in transfected cells
T1 sequence (P11229 1-460): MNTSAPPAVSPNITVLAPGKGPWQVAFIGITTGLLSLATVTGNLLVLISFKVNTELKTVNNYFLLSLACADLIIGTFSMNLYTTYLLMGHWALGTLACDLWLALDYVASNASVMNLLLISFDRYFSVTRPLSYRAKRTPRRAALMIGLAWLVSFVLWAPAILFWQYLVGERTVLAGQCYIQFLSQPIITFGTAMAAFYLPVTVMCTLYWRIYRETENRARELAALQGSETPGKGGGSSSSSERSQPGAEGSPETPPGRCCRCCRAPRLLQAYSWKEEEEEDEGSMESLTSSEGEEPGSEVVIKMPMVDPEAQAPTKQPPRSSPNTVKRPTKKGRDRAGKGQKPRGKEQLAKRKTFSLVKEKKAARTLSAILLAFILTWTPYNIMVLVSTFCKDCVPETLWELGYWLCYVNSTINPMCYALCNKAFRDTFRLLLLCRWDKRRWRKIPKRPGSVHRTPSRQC
Protocol: To determine the affinity (pKB) of the allosteric modulators for the allosteric site, and their binding cooperativity with ACh (log αACh) at the M1 mAChR, whole cell equilibrium competition binding studies were performed, using [^3H]NMS to label the orthosteric site.
FlpIn Chinese hamster ovary (CHO) cells stably expressing the hM1 mAChR were grown in Dulbecco’s modified Eagle’s medium (DMEM) (Invitrogen, Carlsbad, CA) supplemented with 5% foetal bovine serum (FBS) (Thermo-Trace, Melbourne, Australia) and 300 μg/mL G418 (Invitrogen, Carlsbad, CA). The cells were plated at 50,000 cells per well of 96-well white clear bottom plates (Greiner Bio-one, Kremsmünster, Austria), and were grown overnight. The following day, cells were washed twice with Phosphate Buffered Saline (PBS), and incubated with increasing concentrations of ACh (Sigma) in the absence or presence of increasing concentrations of each modulator and 0.2 nM [^3H]NMS (PerkinElmer Life Sciences) in binding buffer (20 mM HEPES, 100 mM NaCl, 10 mM MgCl2, pH 7.4) for 5 h at room temperature. Nonspecific binding was determined using atropine at the final concentration of 10 μM. The assays were terminated by rapid removal of the unbound radioligand followed by two washes with 100 μL/well ice-cold 0.9% NaCl buffer. Radioactivity was determined by addition of 100 μL/well Ultima gold (PerkinElmer Life Sciences) and counting in a MicroBeta plate reader (PerkinElmer Life Sciences).
Binding interaction studies with allosteric ligands were fitted to the following allosteric ternary complex model [Eq. (2)][15] Y=Bmax|A|/[Λ]+[KAKB/α^′[B]+KB][1+[I]/K1+[B]/KB+α[I][B]/KIKB] where Bmax is the total number of receptors, [A], [B] and [I] denote the concentrations of radioligand, allosteric modulator, and orthosteric ligand, respectively; KA, KB and KI are their respective equilibrium dissociation constants. α’ and α are the affinity cooperativity factors between the allosteric ligand and radioligand or the allosteric modulator and ACh, respectively. Values of α or α’ > 1 denote positive cooperativity, values < 1 but > 0 denote negative cooperativity, and a value of 1 indicates neutral coopera-tivity.

M1 mAChR = biological target: T2, M1 mAChR (Homo sapiens, UniProt P11229); experiment: β-arrestin 2 recruitment assay (BRET); assay type: cell-based; details: for αβ (functional cooperativity with ACh) / τB (intrinsic efficacy of the modulator): antilog, in parentheses; for log τB (logarithm of intrinsic efficacy of the modulator) / log αβ (logarithm of functional cooperativity between ACh and modulator): operational model; for log αβ (logarithm of functional cooperativity between ACh and modulator): pKB constrained to binding value
T2 construct: expressed in transfected cells; host or cells: parental FlpIn CHO cells (transient, PEI)
T2 sequence (P11229 1-460): T1 sequence (P11229 1-460)
Excerpt: (§1) The compounds were then fully characterised in two functional assays (Figure 2C and D); the Gq-coupled IP1 accumulation assay (Figure S2), which was used for the initial screening of the compounds, and a β-arrestin 2 recruitment assay (Figure S3). The operational efficacy (τB) values for the modulators and their functional cooperativity estimates with ACh (logαβACh) at both signalling pathways were estimated by applying an operational model of allosterism and agonism to the data [Eq. (3)],[16] and are listed in Table 5.
Parental FlpIn CHO cells were plated at 30000 cells/well of 96-well white Culture plates (Perkin Elmer Life Sciences) and transiently transfected with 10 ng/well of M1 Renilla luciferase (Rluc)-8 and 40 ng/well of YFP-β-arrestin 2 using linear polyethyleneimine (PEI/DNA ratio 6:1) diluted in 150 mM NaCl. DNA:PEI complexes were formed by 15 min incubation at room temperature then added to the cells and incubated at 37°C for 24 h prior to use. Cells were then washed and equilibrated in Hanks’ balanced salt solution for 1 h at 37°C. Coelenterazine h at a final concentration of 5 μM was added to each well, followed by addition of increasing concentrations of ACh in the absence or presence of increasing concentrations of each modulator. Lumines-cence and fluorescence signals were measured 5 min after agonist stimulation using the LUMIstar Omega plate reader (BMG LabTech, Offenburg, Germany). […] Data were then normalized to the maximum response to ACh.
(§2) Functional interaction studies between ACh and allosteric modulators in IP1 and β-arrestin 2 recruitment assays were analysed according to a three-parameter logistic equation or the following operational model of allosterism and agonism [Eq. (3)].[16] E=Basal+(Em−Basal)([A](KB+αβ[B])+τB[B]EC50)^n/EC50n(KB+[B])^n+([A](KB+αβ[B])+τB[B]EC50)^n where Em is the maximal possible system response, and Basal is the response in the absence of agonist. [A] and [B] are concentrations of orthosteric and allosteric ligands, respectively. KB is the equilibrium dissociation constant of allosteric ligand, and EC50 is the concentration of orthosteric agonist required to achieve half maximal response. α and β represent the magnitude of the allosteric effects on orthosteric ligand affinity and efficacy, respectively; τB is the efficacy of allosteric ligand, and n is the slope factor of the transducer function that links occupancy to response.

hM1 mAChR [2] = biological target: T1, hM1 mAChR; experiment: IP1 accumulation assay (ACh concentration-response curves in absence or presence of modulator); assay type: cell-based; details: for ΔpEC50 [1 μM]: change in ACh pEC50 in presence of M1 PAM compared to control curve / activation at 1 µM: 1 μM modulator; for ΔpEC50 [1 μM]: change in ACh pEC50 in presence of M1 PAM compared to control curve / activation at 1 µM / ΔpEC50 [10 μM]: change in ACh pEC50 in presence of M1 PAM compared to control curve / activation at 10 µM: FlpIn CHO hM1 cells, mean ± SEM, 3 experiments; for activation at 1 µM: read-out: Δbaseline [1 μM]: change in basal response in presence of M1 PAM compared to control curve; for ΔpEC50 [10 μM]: change in ACh pEC50 in presence of M1 PAM compared to control curve / activation at 10 µM: 10 μM modulator; for activation at 10 µM: read-out: Δbaseline [10 μM]: change in basal response in presence of M1 PAM compared to control curve; for αβ (functional cooperativity with ACh) / τB (intrinsic efficacy of the modulator) / log τB (logarithm of intrinsic efficacy of the modulator) / log αβ (logarithm of functional cooperativity between ACh and modulator): IP1 accumulation; for αβ (functional cooperativity with ACh) / τB (intrinsic efficacy of the modulator): antilog, in parentheses; for log τB (logarithm of intrinsic efficacy of the modulator) / log αβ (logarithm of functional cooperativity between ACh and modulator): operational model; for log αβ (logarithm of functional cooperativity between ACh and modulator): pKB constrained to binding value
Protocol: Functional activity of the synthesized analogues as racemic mixtures was investigated in IP1 accumulation assays at the M1 mAChR, as described previously.[13–14] ACh concentration-response curves were generated in the absence or presence of a 1 and 10 μM concentration of each modulator. The change in baseline activity (Δbaseline) is an approximate measure of direct allosteric agonism (τB), whereas the pEC50 shift (ΔpEC50) is an approximate measure of functional cooperativity (αβ) of each modulator with ACh in the investigated signalling pathway. We aimed to identify modulators with various degrees of allosteric agonism and modulatory effects on ACh response, as these could generate distinct in vivo outcomes for applications in different conditions in the CNS or gastrointestinal (GI) tract.[[10g,h,j]]
as §1
FlpIn CHO cells stably expressing the hM1 mAChR were seeded at 25000 per well of 96-well transparent cell culture plates and grown overnight. […] Cells were then stimulated with increasing concentration of ACh in the absence or presence of increasing concentrations of each modulator for 1 h at 37°C. […] Seven μL of cell lysates were transferred into wells of 384-well Proxiplates (Perki-nElmer Life Sciences), and IP1 levels were measured using the IP-One assay kit (Cisbio, Codolet, France). […] The signal was expressed as the HTRF ratio, interpolated from the standard curve, and normalized to the maximum response to ACh.
Changes in both baseline and pEC50 were quantified by subtracting the estimates at each M1 PAM concentrations with the control values. Propagation of the error on baseline and potency values were determined as follows [Eq. (1)]: σΔ=σPAM2+σcont.2 where σΔ is the standard error of the mean (SEM) for the change in value, and σPAM and σcont. are the SEM from the three-parameter logistic equation analysis in presence or absence of M1 PAM, respectively.
as §2

[3] = allosteric ternary complex model, mean ± SEM, read-out: pKB (negative logarithm of the allosteric modulator equilibrium dissociation constant) (converted)
[4] = antilog of pKB, in parentheses, read-out: KB (converted)

SMILES	Kb (hM1 mAChR [1]; [3]) [µM]	α (binding cooperativity with ACh) (hM1 mAChR [1]; in parentheses)	log αACh (logarithm of binding cooperativity between ACh and modulator) (hM1 mAChR [1]; mean ± SEM)	αβ (functional cooperativity with ACh) (M1 mAChR)	τB (intrinsic efficacy of the modulator) (M1 mAChR)	log τB (logarithm of intrinsic efficacy of the modulator) (M1 mAChR)	log αβ (logarithm of functional cooperativity between ACh and modulator) (M1 mAChR)	ΔpEC50 [1 μM]: change in ACh pEC50 in presence of M1 PAM compared to control curve (hM1 mAChR [2])	activation at 1 µM (hM1 mAChR [2]) [%]	ΔpEC50 [10 μM]: change in ACh pEC50 in presence of M1 PAM compared to control curve (hM1 mAChR [2])	activation at 10 µM (hM1 mAChR [2]) [%]	αβ (functional cooperativity with ACh) (hM1 mAChR [2])	τB (intrinsic efficacy of the modulator) (hM1 mAChR [2])	log τB (logarithm of intrinsic efficacy of the modulator) (hM1 mAChR [2])	log αβ (logarithm of functional cooperativity between ACh and modulator) (hM1 mAChR [2])	Kb (hM1 mAChR [1]; [4]) [µM]
Cn1cc(-c2ccc(COc3ccsc3-c3ccn(C4CCCCC4O)c(=O)c3)cc2)cn1 (centres unmarked) [Compound 7h, 1-(2-Hydroxycyclohexyl)-4-(3-((4-(1-methyl-1H-pyrazol-4-yl)benzyl)oxy)thiophen-2-yl)pyridin-2(1H)-one]	6.03	380	2.58±0.18	955	1	0.07±0.05	2.98±0.10	1.88±0.37	70.8 ± 4	2.28±0.77	90.3 ± 3.1	562	6	0.78±0.04	2.75±0.11	
Cn1cc(-c2ccc(COc3ccccc3-c3ccn(C4CCCCC4=O)c(=O)c3)cc2)cn1 (centres unmarked) [Compound 13d, 4-(2-((4-(1-Methyl-1H-pyrazol-4-yl)benzyl)oxy)phenyl)-1-(2-oxocy-clohexyl)pyridin-2(1H)-one]	29.5	52	1.72±0.20	14			1.16±0.17	0.29±0.05	4.8 ± 1.4	1.31±0.06	27 ± 1.5	30	1		1.48±0.11	30
Cn1cc(-c2ccc(COc3ncccc3-c3cc(=O)n(C4CCCCC4O)cn3)cc2)cn1 (centres unmarked) [Compound 26a, 3-(2-Hydroxycyclohexyl)-6-(2-((4-(1-methyl-1H-pyrazol-4-yl)benzyl)oxy)pyridin-3-yl)pyrimidin-4(3H)-one]	3.31	120	2.08±0.13	95	2	0.28±0.04	1.98±0.10		100		100		3	0.54±0.02	1.89±0.07	3
